Read-outs that look alike come from different tables or passages of the source.
What was measured:
[1] = system: Key Grass and Sedge Weeds as well as Grass Crops; assay: Post-emergent Test II herbicidal activity (Table 6); format: in vivo; conditions: post-emergence, 336 h; for pest or weed control at 70 g/ha: application rate 70 g ai/ha; for pest or weed control at 140 g/ha: application rate 140 g ai/ha
In short: (§1)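 Scoring: visual, 0–100% injury at 14 d versus untreated. Treatment: overhead track spray, 187 L/ha, onto plants at the first–second true leaf stage. Growth: greenhouse, ~15 h light, 23–29 °C day, 22–28 °C night.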

[2] = system: Key Broadleaf Weed and Crop Species; assay: Post-emergent Test II herbicidal activity (Table 5); format: in vivo; conditions: post-emergence, 336 h, post-emergent, 14 days after application; for pest or weed control at 70 g/ha: 70 g ai/ha; for pest or weed control at 140 g/ha: 140 g ai/ha
In short: as §1

[3] = CYPES: yellow nutsedge (Cyperus esculentus), read-out: Visual Growth Reduction (%) 14 Days After Application, CYPES
[4] = DIGSA: crabgrass (Digitaria sanguinalis), read-out: Visual Growth Reduction (%) 14 Days After Application, DIGSA
[5] = ECHCG: barnyardgrass (Echinochloa crus-galli), read-out: Visual Growth Reduction (%) 14 Days After Application, ECHCG
[6] = ORYSA: rice (Oryza sativa), read-out: Visual Growth Reduction (%) 14 Days After Application, ORYSA
[7] = SETFA: giant foxtail (Setaria faberi), read-out: Visual Growth Reduction (%) 14 Days After Application, SETFA
[8] = SORVU: grain sorghum (Sorghum vulgare), read-out: Visual Growth Reduction (%) 14 Days After Application, SORVU
[9] = TRZSS (wheat, Triticum aestivum), read-out: Visual Growth Reduction (%) 14 Days After Application, TRZSS
[10] = ZEAMX: maize, corn (Zea mays), read-out: Visual Growth Reduction (%) 14 Days After Application, ZEAMX
[11] = ABUTH: velvetleaf (Abutilon theophrasti), read-out: Visual Growth Reduction (%) 14 Days After Application ABUTH
[12] = AMARE: redroot pigweed (Amaranthus retroflexus), read-out: Visual Growth Reduction (%) 14 Days After Application AMARE
[13] = BRSNN: oilseed-rape, canola (Brassica napus), read-out: Visual Growth Reduction (%) 14 Days After Application BRSNN
[14] = CHEAL: lambsquarters (Chenopodium album), read-out: Visual Growth Reduction (%) 14 Days After Application CHEAL
[15] = EPHHL: wild poinsettia (Euphorbia heterophylla), read-out: Visual Growth Reduction (%) 14 Days After Application EPHHL
[16] = HELAN: sunflower (Helianthus annuus), read-out: Visual Growth Reduction (%) 14 Days After Application HELAN
[17] = VIOTR: wild pansy (Viola tricolor), read-out: Visual Growth Reduction (%) 14 Days After Application VIOTR

What does the source list for COC(=O)c1nc(-c2cc(F)c(C(F)(F)F)cc2F)nc(N)c1OC [Compound 148, methyl 6-amino-2-(2,5-difluoro-4-(trifluoromethyl)phenyl)-5-methoxypyrimidine-4-carboxylate]?
melting point: 96 to 98 °C; pest or weed control at 70 g/ha [1, 3]: 60 to 74%; pest or weed control at 140 g/ha [1, 3]: 75 to 84%; pest or weed control at 70 g/ha [1, 4]: 0 to 29%; pest or weed control at 140 g/ha [1, 4]: 0 to 29%; pest or weed control at 70 g/ha [1, 5]: 0 to 29%; pest or weed control at 140 g/ha [1, 5]: 0 to 29%; pest or weed control at 70 g/ha [1, 6]: 0 to 29%; pest or weed control at 140 g/ha [1, 6]: 30 to 44%; pest or weed control at 70 g/ha [1, 7]: 0 to 29%; pest or weed control at 140 g/ha [1, 7]: 0 to 29%; pest or weed control at 70 g/ha [1, 8]: 0 to 29%; pest or weed control at 140 g/ha [1, 8]: 0 to 29%; pest or weed control at 70 g/ha [1, 9]: 30 to 44%; pest or weed control at 140 g/ha [1, 9]: 60 to 74%; pest or weed control at 70 g/ha [1, 10]: 0 to 29%; pest or weed control at 140 g/ha [1, 10]: 30 to 44%; pest or weed control at 70 g/ha [2, 11]: 75 to 84%; pest or weed control at 140 g/ha [2, 11]: 75 to 84%; pest or weed control at 70 g/ha [2, 12]: 0 to 29%; pest or weed control at 140 g/ha [2, 12]: 0 to 29%; pest or weed control at 70 g/ha [2, 13]: 45 to 59%; pest or weed control at 140 g/ha [2, 13]: 60 to 74%; pest or weed control at 70 g/ha [2, 14]: 85 to 94%; pest or weed control at 140 g/ha [2, 14]: 95 to 100%; pest or weed control at 70 g/ha [2, 15]: 85 to 94%; pest or weed control at 140 g/ha [2, 15]: 75 to 84%; pest or weed control at 70 g/ha [2, 16]: 45 to 59%; pest or weed control at 140 g/ha [2, 16]: 60 to 74%; pest or weed control at 70 g/ha [2, 17]: 45 to 59%; pest or weed control at 140 g/ha [2, 17]: 60 to 74%
